Laboratory results as given in patent US4118561A, “7-(Substituted)-7H-pyrrolo[3,2-f]quinazoline-1,3-diamines” (priority 1977, dated 1978).
Converted amounts (≈) assume the structure as drawn. Where two headings read alike, the source gives them in different places.

What was measured:
S. paratyphi 11737 = experiment: In vitro antibacterial activity (MIC), S. paratyphi 11737; type: cell-based; details: Salmonella enterica, 18 h
Proteus mirabilis 190 = experiment: In vivo antibacterial synergism (mouse), Proteus mirabilis 190; design: species or system Proteus mirabilis (infected mice, CD-1)
Method: The test agents are weighed, suspended in 0.5% aqueous carboxymethyl cellulose, homogenized (glass tissue grinder) and diluted according to the design of the experiment. Mice (male, 18±1 g., CD-1 strain) are pre-weighed, pooled, infected at random intraperitoneally with a 0.5 ml. standardized suspension (LD95 ±5%) of the bacterial organism in 5% gastric mucin and treated at random with single doses of the test agents either at the time of infection or six hours after infecting. The treated groups consist of ten mice per dosage level. Deaths are recorded daily for 14 days and the PD50 (mice are treated at time of infection) and CD50 (mice are treated six hours after infecting) values are calculated by the method of Reed and Muench [Amer. J. Hyg., 27, 493 (1938)].

[1] = Antimalarial blood schizonticidal test in mice; type: in vivo, Plasmodium berghei (infected ICR/HA Swiss mice); design: ΔMST (increase in mean survival time): unit: days; details: mouse, in vivo, sc, single dose, read-out: Highest Non-Lethal Dose
Method in brief: (§1)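 ICR/HA Swiss mice (18–22 g) infected i.p. with 4 × 10^7 P. berghei KBG 173-parasitized cells; single subcutaneous dose in peanut oil at 72 h post-infection, graded dosages. Survival followed 60 days; 60-day survivors counted cured, deaths before day 6 counted toxic; mean survival time compared with untreated controls.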

[2] = test system: Plasmodium berghei KBG 173; experiment: Antimalarial blood schizonticidal test in mice; type: in vivo, Plasmodium berghei (infected ICR/HA Swiss mice); design: ΔMST (increase in mean survival time): unit: days; details: for ED100 / minimal effective dose: Plasmodium berghei, sc, single dose; for ED100: read-out: Lowest Dose Curing All Mice; for minimal effective dose: read-out: Min. Curing Dose; for Cure/Treat at Min. Curing Dose: at the Min. Curing Dose
Method in brief: as §1

P. cynomolgi = experiment: Activity against P. cynomolgi infections in Rhesus monkeys; type: in vivo, P. cynomolgi (infected Rhesus monkeys); details: Plasmodium cynomolgi, in Macaca mulatta, 168 h
[3] = test system: lymphocytic leukemia P-388; experiment: Activity in mice against lymphocytic leukemia P-388; type: in vivo; details: Mus musculus, P388, ip, read-out: T/C
[4] = Acute toxicity in mice, i.p. single dose; type: in vivo, Charles River COBS CD Strain Albino mice, male; details: mouse, in vivo, ip; mice, single dose, 14 days
Method: (§2) Single doses of 7-(phenylmethyl)-7H-pyrrolo[3,2-f]-quinazoline-1,3-diamine (active moiety) were intraperitoneally administered in 0.5% carboxymethylcellulose at a constant dose volume of 10 ml./kg., to groups of 10 mice/dose level. (Charles River COBS CD Strain Albino mice, male, weight 21.0-25.29.) Daily observations were made on all mice for the duration of experiment (14 days). […] (95% confidence limits of 48.6-93.4) all deaths occurred 4-5 days post-drug-administration.
(§3) These effects lasted up to 6 days in the low dose animals and 14 days in those animals having received the highest dose. All mice alive on day 14 were sacrificed and necropsied.

mice = experiment: Acute toxicity in mice, i.p. single dose; type: in vivo, Charles River COBS CD Strain Albino mice, male
Method: as §2, §3

E. coli 9637 = experiment: In vitro antibacterial activity (MIC), E. coli 9637; details: Escherichia coli, 9637, 18 h
S. aureus Smith = experiment: In vitro antibacterial activity (MIC), S. aureus Smith; details: Staphylococcus aureus, 18 h
S. aureus 53-180 = experiment: In vitro antibacterial activity (MIC), S. aureus 53-180; details: Staphylococcus aureus, 53180, 18 h
P. vulgaris 6896 = experiment: In vitro antibacterial activity (MIC), P. vulgaris 6896; details: Proteus vulgaris, 6896, 18 h
N. catarrhalis 8193 = experiment: In vitro antibacterial activity (MIC), N. catarrhalis 8193; details: 18 h
K. pneumoniae 10031 = experiment: In vitro antibacterial activity (MIC), K. pneumoniae 10031; details: Klebsiella pneumoniae, 10031, 18 h
[5] = test system: strains of P. berghei resistant to chloroquine, sulfones, cycloguanil, and pyrimethamine; experiment: Activity against resistant strains of P. berghei in mice; type: in vivo, P. berghei (infected mice)
Description: Activity against strains of P. berghei resistant to chloroquine, sulfones, cycloguanil, and pyrimethamine, is shown by the testing of 7-(phenylmethyl)-7H-pyrrolo[3,2-f]quinazoline-1,3-diamine and 7-[(2,5-dimethylphenyl)methyl]-7H-pyrrolo[3,2-f]quinazoline-1,3-diamine in mice against such resistant strains.

For `Nc1nc(N)c2c(ccc3c2ccn3Cc2ccccc2)n1` [Example 2, 7-(Phenylmethyl)-7H-pyrrolo[3,2-f]quinazoline-1,3-diamine], the MIC (S. paratyphi 11737) was 1.95 µg/mL (≈ 6.74 µM), the ED50 (Proteus mirabilis 190; Proteus mirabilis, 190, po, 336 h, read-out: PD50 (agent alone)) was 22.5 mg/kg and the “PD50 SM/Cpd. (compound part)” value (Proteus mirabilis 190; mice, p.o., 0 hours, with SM 1.56 mg. per kg., 20160 min) was 7.78 mg. per kg. For the same molecule, the MTD ([1]; infected mice, highest dose with no deaths for any reason) was 160 mg/kg, the ED100 ([2]; 1440 h, s.c., 60-day survivors) was 80 mg/kg and the minimal effective dose ([2]; this is the lowest dose tested) was 20 mg/kg. For the same molecule, the “Cure/Treat at Min. Curing Dose” value ([2]; s.c., 60-day survivors) was 2/5, the “ΔMST (increase in mean survival time)” value ([2]; s.c., dose 20 mg. per kg.) was 10.9 and the ED50 (P. cynomolgi; po, read-out: CD50) was 0.1 mg/kg. It also gave a response vs control in vivo at 10 mg/kg [3] of 149%, an LD50 at 336 h [4] of 54.5 mg/kg and a duration of effects (mice; animals having received the highest dose, i.p.) of 14 days. The “signs observed on day 2 post-drug-administration” value (mice; day 2, i.p. single dose) was “rough coats and decreased fecal elimination”, the duration of effects (mice; low dose animals, i.p.) was “up to 6 days” and the “necropsy, macroscopic” value (mice; mice alive on day 14) was “Macroscopically, the tissues appeared normal”. For the same molecule, the “time of deaths post-drug-administration” value (mice; mice, i.p., single dose) was 4 to 5 days, the “LD50, 95% confidence limits” value (mice; mice, i.p., single dose, 14 days) was 48.6 to 93.4 mg/kg and the “signs in all mice after i.p. injection” value (mice; within 1 hour after i.p. injection) was “decreased spontaneous motor activity, bradypnea, ptosis, and stretching with indrawn sides in all mice”. For the same molecule, the MIC (E. coli 9637) was 1.95 µg/mL (≈ 6.74 µM), the MIC (S. aureus Smith) was 1.95 µg/mL (≈ 6.74 µM) and the MIC (S. aureus 53-180) was 1.95 µg/mL (≈ 6.74 µM). The MIC (P. vulgaris 6896) was 7.81 µg/mL (≈ 27 µM), the MIC (N. catarrhalis 8193) was 0.061 µg/mL (≈ 0.211 µM) and the MIC (K. pneumoniae 10031) was 1.95 µg/mL (≈ 6.74 µM).

For `Cc1ccc(C)c(Cn2ccc3c4c(N)nc(N)nc4ccc32)c1` [Example 23, 7-[(2,5-dimethylphenyl)methyl]-7H-pyrrolo[3,2-f]quinazoline-1,3-diamine], the MIC (S. paratyphi 11737) was 125 µg/mL (≈ 394 µM), the MTD ([1]; this is the highest dose tested) was 640 mg/kg and the ED100 ([2]; 1440 h, s.c., 60-day survivors) was 40 mg/kg. For the same molecule, the minimal effective dose ([2]; 1440 h, s.c., 60-day survivors) was 10 mg/kg, the “Cure/Treat at Min. Curing Dose” value ([2]; s.c., 60-day survivors) was 3/5 and the “ΔMST (increase in mean survival time)” value ([2]; s.c., dose 5 mg. per kg.) was 7.9. For the same molecule, the ED50 (P. cynomolgi; Rhesus monkeys, oral, seven days, read-out: CD50 (the source's name)) was 1 mg/kg, the “Activity against resistant strains” value [5] was “Activity” and the response vs control in vivo at 10 mg/kg ([3]; mice, I.P., 10 mg/kg) was 142%. For the same molecule, the MIC (E. coli 9637) was 31.3 µg/mL (≈ 98.6 µM), the MIC (S. aureus Smith) was 3.9 µg/mL (≈ 12.3 µM) and the MIC (S. aureus 53-180) was 0.976 µg/mL (≈ 3.08 µM). It also gave an MIC (P. vulgaris 6896) of 250 µg/mL (≈ 788 µM), an MIC (N. catarrhalis 8193) of 0.244 µg/mL (≈ 0.769 µM) and an MIC (K. pneumoniae 10031) of 1.95 µg/mL (≈ 6.14 µM).
